Test results published in patent US20240034753A1, “THERAPEUTIC PEPTIDES” (COHBAR, INC., priority 2020, published 2024).
Square brackets hold non-standard residues; d marks the D form. Ends that are not written are not given here. Peptide text beside a SMILES is read from it.

Legend:
[1] = test system: A172 human brain glioblastoma cell line; test: Caspase-Glo 3/7 assay of caspase 3/7 activity in cultured cells; format: cell-based; settings: peptide 10 μM, 18-20 hours, relative to 0.1% DMSO control
Description: The effect of the peptides on cell death/survival can be assessed using a […] assay in cultured cells. Peptides were dissolved at 10 mM in DMSO as stock solutions for use at a final concentration of 10 μM. […] Caspase-Glo 3/7 Assay Reagent was purchased from Promega (Madison, WI). A172 human brain glioblastoma cell line was purchased from American Type Culture Collection (Manassas, VA). A172 cells were grown in DMEM supplemented with 10% FBS with 100 IU/ml penicillin and 100 μg/ml streptomycin. Cultures were maintained at 37° C. in a humidified atmosphere of 5% CO2/95% air. A172 cells were seeded at 8,000 cells per well on 96-well plates. […] Caspase 3/7 activity was determined using a Caspase-Glo 3/7 Assay kit (Promega) according to the manufacturer's instructions. Luminescence for each sample well on the plate was measured using a Cytation 3 plate reader (BioTek, Winooski, VT). Activity was calculated relative to 0.1% DMSO control.

A172 Cells = test: PrestoBlue cell viability assay; format: cell-based; settings: human, 10 μM
Description: The effect of the peptides on cell viability can be assessed in cultured cells using suitable assay of viability such as the PrestoBlue® assay (Thermo Fisher Scientific, Waltham, MA). Peptides were initially prepared as 10 mM stock in DMSO and tested at a final concentration of 10 μM (0.1% DMSO). […] PrestoBlue Assay Reagent was purchased from Thermo Fisher Scientific. A172 human brain glioblastoma cell line was purchased from American Type Culture Collection (Manassas, VA). A172 cells were grown in DMEM supplemented with 10% FBS with 100 IU/ml penicillin and 100 μg/ml streptomycin. Cultures were maintained at 37° C. in a humidified atmosphere of 5% CO2/95% air. A172 cells were seeded at 8,000 cells per well on 96-well plates. […] Cell viability was determined using a PrestoBlue Assay reagent […] according to the manufacturer's instructions. Absorption for each sample well on the plate was measured using a Cytation 3 plate reader at 560 nm and 590 nm (BioTek, Winooski, VT). Activity was calculated relative to 0.1% DMSO untreated control. Treatment with 0.1% DMSO alone was used as the cell viability activity control. The relative standard deviation of the DMSO control was <5%.

[2] = test system: SH-SY5Y Neuroblastoma Cells; test: ATP levels (CellTiter-Glo); format: cell-based, human; settings: peptide 10 μM, 18-20 hours, relative to 0.1% DMSO treated control
Description: The effect of the peptides on cellular metabolism can be assessed using an assay of ATP levels in cultured cells such as human neuroblastoma cells. Peptides were initially prepared as 10 mM stock in DMSO and used at a final concentration of 10 μM (0.1% DMSO). […] CellTiter-Glo® Assay kit was purchased from Promega. SH-SY5Y human bone marrow neuroblastoma cell line was purchased from American Type Culture Collection (Manassas, VA) and licensed from Memorial Sloan-Kettering Cancer Center (New York, NY). SH-SY5Y cells were grown in DMEM/F12 medium supplemented with 10% FBS with 100 IU/ml penicillin and 100 μg/ml streptomycin. Cultures were maintained at 37° C. in a humidified atmosphere of 5% CO2/95% air. SH-SY5Y cells were seeded at 30,000 cells per well on 96-well plates. […] ATP levels were determined using a CellTiter-Glo Assay kit (Promega) according to the manufacturer's instructions. Luminescence for each sample well on the plate was measured using a Cytation 3 plate reader (BioTek, Winooski, VT). Activity was calculated relative to 0.1% DMSO treated control. The relative standard deviation of the result for the 0.1% DMSO treated control was <5%.

[3] = test system: SH-SY5Y Neuroblastoma Cells Exposed to Staurosporine; test: ATP levels in cells exposed to staurosporine (CellTiter-Glo); format: cell-based, human; settings: peptide 10 μM plus staurosporine (40 μM), 18-20 hours; <100% cytoprotective, >100% synergistic
Description: Peptides were initially prepared as 10 mM stock in DMSO and tested at a final concentration of 10 μM (0.1% DMSO). […] […] CellTiter-Glo® Assay kit was purchased from Promega. SH-SY5Y human neuroblastoma cell line was purchased from American Type Culture Collection (Manassas, VA) and licensed from Memorial Sloan-Kettering Cancer Center (New York, NY). SH-SY5Y cells were grown in DMEM/F12 medium supplemented with 10% FBS with 100 IU/ml penicillin and 100 μg/ml streptomycin. Cultures were maintained at 37° C. in a humidified atmosphere of 5% CO2/95% air. SH-SY5Y cells were seeded at 30,000 cells per well on 96-well plates. […] ATP levels were determined using a CellTiter-Glo Assay kit (Promega) according to the manufacturer's instructions. Luminescence for each sample well on the plate was measured using a Cytation 3 plate reader (BioTek, Winooski, VT). […] A value less than 100% is indicative of a cytoprotective effect, while a value greater than 100% is indicative of a synergistic effect on viability.

Row | Compound | Caspase 3/7 Activity, Percent of Control Activity [1] | PrestoBlue cell viability, Percent of Control Activity (A172 Cells) | ATP Levels, % Control [2] | Percent of ATP Reduction Induced by Control [3]
1 | CC[C@H](C)[C@H](NC(=O)[C@@H](NC(=O)[C@H](Cc1c[nH]cn1)NC(=O)[C@H](CCCNC(=N)N)NC(=O)[C@H](CC(=O)O)NC(=O)[C@H](Cc1ccc(O)cc1)NC(=O)[C@H](CC(C)C)NC(=O)[C@H](CC(C)C)NC(=O)[C@@H](NC(=O)[C@@H](N)Cc1c[nH]c2ccccc12)C(C)C)C(C)C)C(=O)NCC(=O)NCC(=O)N[C@@H](CO)C(=O)N[C@@H](CC(C)C)C(=O)N[C@@H](CS)C(=O)N[C@H](C(=O)N[C@H](C(=O)N[C@H](C(=O)N[C@@H](CCC(N)=O)C(=O)N[C@H](C(=O)N[C@@H](CCC(=O)O)C(=O)N[C@H](C)C(=O)O)C(C)C)C(C)C)C(C)C)C(C)C [compound 24] (H-WVLLYDRHVIGGSLCVVVQVE[dA]-OH; N-terminus and C-terminus assumed) | 108.8% | 96.7% | 98.3% | 80.4%
2 | CC[C@H](C)[C@H](NC(=O)[C@@H](NC(=O)[C@H](Cc1c[nH]cn1)NC(=O)[C@H](CCCNC(=N)N)NC(=O)[C@H](CC(=O)O)NC(=O)[C@H](Cc1ccc(O)cc1)NC(=O)[C@H](CC(C)C)NC(=O)[C@H](CC(C)C)NC(=O)[C@@H](NC(=O)[C@@H](N)Cc1c[nH]c2ccccc12)C(C)C)C(C)C)C(=O)NCC(=O)NCC(=O)N[C@@H](CO)C(=O)N[C@@H](CC(C)C)C(=O)N[C@@H](CS)C(=O)N[C@H](C(=O)N[C@@H](CCC(N)=O)C(=O)N[C@H](C(=O)N[C@@H](CCC(N)=O)C(=O)N[C@H](C(=O)N[C@@H](CCC(=O)O)C(=O)N[C@H](C)C(=O)O)C(C)C)C(C)C)C(C)C [compound 25] (H-WVLLYDRHVIGGSLCVQVQVE[dA]-OH; N-terminus and C-terminus assumed) | 108.8% | 96.5% | 106.9% | 82.7%
3 | GWVLLYDRHVIGGSLCVVVQVEAY [compound 22] | 105.0% | 96.5% | 103.5% | 73.1%
4 | MAGVIRGVLVL [compound 8] | 86.7% | 92.0% | 101.1% | 92.6%
5 | MLLILTLVLL [compound 2] | 86.6% | 94.4% | 99.9% | 91.6%
6 | MMAGVIRGVLVL [compound 7] | 84.6% | 86.2% | 103.9% | 103.3%
7 | MRQWILHNGGMSFFC [compound 12] | 109.7% | 100.5% | 101.0% | 98.0%
8 | MRRRMFSCYLY [compound 17] | 91.3% | 100.6% | 104.6% | 94.2%
9 | RQWILHNGGMSFFC [compound 13] | 115.8% | 99.1% | 101.2% | 103.8%
10 | RRRMFSCYLY [compound 18] | 95.7% | 100.9% | 108.6% | 96.1%
